The results in this text go back to patent US20250230226A1, “PLXDC1/PLXDC2 ACTIVATORS AND THEIR USE IN THE TREATMENT OF BLOOD VESSEL DISORDERS” (THE REGENTS OF THE UNIVERSITY OF CALIFORNIA, priority 2019, published 2025).

For this test, the system named is LL/2 lung cancer tumor endothelial cells. In words: Lung LL2 ex vivo model of tumor angiogenesis. The following applies: for 48 hrs (morphology observations): LL/2 tumor endothelial cells; for Cell death: drug treatment for two days, ratio of red area to total endothelial cell area. The test is classed as cell-based, mouse. As to the method:
An ex vivo tumor angiogenesis model was developed to test the efficacy of anti-cancer candidate agents. The following protocol describes the Ex Vivo Tumor Angiogenesis Model.
• 1. The day before the experiment, all necessary tools were sprayed with 70% ethanol and sterilized under UV light overnight, including blade, dissecting and micro-dissecting scissors and […]. 24-well dishes were placed at 4° C. to pre-chill plates and Matrigel was thawed, 24 hours before tumor dissection. • 2. 70% ethanol was sprayed on working bench. Two sterile petri dishes were prepared with 10 ml sterile PBS. The following steps 3 and 4 are necessary for mouse tumor models. For fresh human tumor, steps 3 and 4 are skipped. • 3. The tumor-bearing mice were euthanized. 70% ethanol was sprayed on the mouse and the tumor was removed using sterilized dissecting tools (avoid the fur). The tumor was rinsed in petri dish with sterile PBS to remove ethanol and fur. The tumor was transferred to a new petri dish with PBS for dissection. The dish is placed on ice. • 4. Pre-chilled sterile pipet tips were used to seed regular Matrigel in 24 well plates on ice. Matrigel (30 μl) was dropped in the middle of each well without touching the edge of the well (avoid introducing bubbles if possible). • 5. The tumor was cut in halves using the sterile blade. Healthy tumor tissue that is not necrotic and is within the tumor capsule was identified and isolated. The healthy tumor tissue was cut into small pieces. For instance, a suitable size for the tumor tissue is 0.5 mm (H)×0.5 mm (L)×0.3 mm (D) with a total volume of 0.075 mm^3. • 6. Each tumor piece was gently transferred and embedded in the Matrigel drop in the 24-well plate. The embedded piece was placed in the bottom and middle of each Matrigel drop. The plate was kept on ice all the time. • 7. After seeding the tumor pieces, plates were incubated in a 37° C. cell culture incubator without medium for 10 minutes in order for the Matrigel to solidify. • 8. Endothelial Growth Medium (0.5 ml) was added to each well and incubated at 37° C. with 5% CO2. Treatment was not added until the new endothelial cells was grown out of the tumor or were larger than 3 mm in diameter. This usually takes 4 days for the LL2 Lewis lung cancer model and 7 days for the CT26 colon cancer model. For human tumor models, the growth time is typically 2-3 weeks, depending on the tumor type. Media was changed every 4 days during prolonged culture. Typically, when the tumor tissue grows to 2 mm in diameter, it was good for drug testing. A size of about 3 mm in diameter can make visualization easier. • 9. When the assay was ready to be analyzed for cell death (e.g., 48 hours after drug addition), the dye mixture was prepared by mixing 6 μl of green dye to stain live cells (5 mg/ml Fluorescein diacetate or FDA in DMSO) with 30 μl of red dye (2.5 mg/ml Propidium iodide or PI in PBS) to stain dead cells in an Eppendorf tube. The FDA dye needs to be stored frozen in a −20° C. freezer because it has a labile ester bond. • 10. 1 μl of the dye mixture was added to each well of the 24-well dish. It is usually preferred to do one 24-well dish at a time given the amount of time needed to take pictures (the green dye is not as stable in the cells in the long term). • 11. The dish was gently rocked a few times to mix the dye with the media in the wells and incubate the dish at 37° C. for 10 min (too long incubation can make the green signal too intense). • 12. Each well was washed with 0.5 ml of sterile PBS and then 0.5 ml of phenol red free SFM was added to each well. Alternatively 0.5 ml of regular Endothelial Cell Growth Media can be added to each well if this well needs to be continuously maintained after the experiment. • 13. An inverted microscope using the 2× objective lens was used to observe morphological changes in the experimental wells. • 14. […]

Setting [1] is: Mus musculus, Endothelial cell, 48 h, read-out: Cell death.

Structures are written as SMILES.

For `COc1ccc(S(=O)(=O)c2cnc3cc(OC)c(OC)cc3c2N2CCCN(C3CCSCC3)CC2)cc1` [Compound 329], for the setting “40 μm”, the “48 hrs (morphology observations)” value was “*** (more than 50% but less than 100% of endothelial cells vesicularize in cell shape)” and the Cell death stood at 40%.

For `CCCCCCCCCCOc1ccc(S(=O)(=O)c2cnc3ccc([S+](C)[O-])cc3c2N2CCC(N3CCC(N4CCOCC4)CC3)CC2)cc1` (stereo not drawn) [Compound 286], for the setting “20 μm, (24 hrs)”, the “Cell death, read at 24 hrs” value stood at 0% and the “Endothelial cell morphology score at 24 hrs” value was found to be 0. On to `COc1ccc(S(=O)(=O)c2cnc3ccc(SC)cc3c2NN2CCN(C)CC2)cc1` [Compound 226], for which, for the setting “40 μm”, the “48 hrs (morphology observations)” value is reported as “* (50% or less of cells vesicularize in cell shape)” and the Cell death was 10%.

As to `CCc1ccc(S(=O)(=O)c2cnc3ccc(OC(F)(F)F)cc3c2NCCCCCO)cc1` [Compound 104], for the setting “20 μm”, the “48 hrs (morphology observations)” value came to 0 and the Cell death is 20%.

Regarding `CCCCOc1ccc(S(=O)(=O)c2cnc3ccc([S+](C)[O-])cc3c2N2CCC(N3CCC(N4CCCCC4)CC3)CC2)cc1` (stereo not drawn) [Compound 237], under “40 μm”, the “48 hrs (morphology observations)” value is given as “*** (more than 50% but less than 100% of endothelial cells vesicularize in cell shape)” and the Cell death is on record as 100%. Taken in the same sequence, the figures for `CCCCOc1ccc(S(=O)(=O)c2cnc3ccc(OC(F)(F)F)cc3c2N2CCS(=O)(=O)CC2)cc1` [Compound 198] were 0 and 30%. The like results for `CCCCOc1ccc(S(=O)(=O)c2cnc3ccc([S+](C)[O-])cc3c2N2CCC(N3CCC(CO)CC3)CC2)cc1` (stereo not drawn) [Compound 240] were, in that order, 0 and 30%. Take `CCOC(=O)c1ccc2ncc(S(=O)(=O)c3ccc(CC)cc3)c(-n3ccnc3)c2c1` [Compound 134]: the “48 hrs (morphology observations)” value (20 μm) is “**** (100% of endothelial cells vesicularize in cell shape and look flattened in morphology (indicating disintegration of the cell body))”.

On to `CCCCOc1ccc(S(=O)(=O)c2cnc3ccc(C(=O)OCC)cc3c2N2CCS(=O)(=O)CC2)cc1` [Compound 196], for which, for the setting “40 μm”, the “48 hrs (morphology observations)” value is 0 and the Cell death is 30%. The like results for `COc1ccc(S(=O)(=O)c2cnc3cc(OC)c(OC)cc3c2N2CCC(N3CCCC3=O)CC2)cc1` [Compound 321] were, in that order, 0 and 40%. For the compound `CCCCCCCCCCOc1ccc(S(=O)(=O)c2cnc3ccc([S+](C)[O-])cc3c2N2CCC(N3CCC(N4CCCC(O)C4)CC3)CC2)cc1` (stereo not drawn) [Compound 288], for the setting “10 μm”, the “48 hrs (morphology observations)” value was “*** (more than 50% but less than 100% of endothelial cells vesicularize in cell shape)” and the Cell death amounted to 50%. For the compound `CCCCCCCCCCOc1ccc(S(=O)(=O)c2cnc3ccc([S+](C)[O-])cc3c2N2CCC(N3CCC(N4CCCCC4)CC3)CC2)cc1` (stereo not drawn) [Compound 269], for the setting “20 μm”, the “48 hrs (morphology observations)” value was “**** (100% of endothelial cells vesicularize in cell shape and look flattened in morphology (indicating disintegration of the cell body))”; the Cell death worked out at 100%.

Regarding `CCCCOc1ccc(S(=O)(=O)c2cnc3ccc(SC)cc3c2N2CCC(=O)N(C)CC2)cc1` [Compound 357], the “48 hrs (morphology observations)” value (40 μm) was 0. Besides, the cytotoxicity at 40 µM under setting [1] turned out to be 0%. With `CCCCCCCOc1ccc(S(=O)(=O)c2cnc3ccc([S+](C)[O-])cc3c2N2CCC(N3CCC(O)(c4ccccc4)CC3)CC2)cc1` (stereo not drawn) [Compound 263], under “10 μm”, the “48 hrs (morphology observations)” value is “**** (100% of endothelial cells vesicularize in cell shape and look flattened in morphology (indicating disintegration of the cell body))”. As for `CCOC(=O)c1ccc2ncc(S(=O)(=O)c3ccc(OC)cc3)c(N3CCC(N4CCCC(O)C4)CC3)c2c1` (stereo not drawn) [Compound 174], under “40 μm”, the “48 hrs (morphology observations)” value was found to be 0 and the Cell death is reported as 30%.

For the compound `CCOC(=O)c1ccc(N2CCN(c3c(S(=O)(=O)c4ccc(OC)cc4)cnc4cc(OC)c(OC)cc34)CC2)cc1` [Compound 317], under “40 μm”, the “48 hrs (morphology observations)” value turned out to be 0 and the Cell death turned out to be 30%. Consider `CCc1ccc(S(=O)(=O)c2cnc3ccc(OC)cc3c2NN2CCN(C)CC2)cc1` [Compound 83], for which the “48 hrs (morphology observations)” value (40 μm) was 0. For the same compound, the cytotoxicity at 40 µM under setting [1] stood at 20%.

Take `CCCCOc1ccc(S(=O)(=O)c2cnc3ccc(C(=O)OCC)cc3c2-n2cnnn2)cc1` [Compound 186]: for the setting “10 μm”, the “48 hrs (morphology observations)” value was “**** (100% of endothelial cells vesicularize in cell shape and look flattened in morphology (indicating disintegration of the cell body))”; the Cell death amounted to 90%. In the case of `CC(C)CCCC(C)CCOc1ccc(S(=O)(=O)c2cnc3ccc([S+](C)[O-])cc3c2N2CCC(N3CCN(CCO)CC3)CC2)cc1` (stereo not drawn) [Compound 284], under “10 μm”, the “48 hrs (morphology observations)” value is reported as 0 and the Cell death came out at 10%. For the compound `CCc1ccc(S(=O)(=O)c2cnc3ccc(OC(F)(F)F)cc3c2NN2CCOCC2)cc1` [Compound 126], under “20 μm”, the “48 hrs (morphology observations)” value is 0 and the Cell death is 10%. On to `CNC(=O)c1ccc2ncc(S(=O)(=O)c3ccc(OC)cc3)c(N3CCC(N4CCCCC4)CC3)c2c1` [Compound 143], for which the “48 hrs (morphology observations)” value (40 μm) came to 0. Further, under setting [1], the cytotoxicity at 40 µM is 40%. With `CCN(c1c(S(=O)(=O)c2ccc(OC)cc2)cnc2cc(OC)c(OC)cc12)C(C)C` [Compound 294], under “40 μm”, the “48 hrs (morphology observations)” value is “* (50% or less of cells vesicularize in cell shape)” and the Cell death is 50%.

Take `CCCCCCCCCCCCOc1ccc(S(=O)(=O)c2cnc3ccc([S+](C)[O-])cc3c2N2CCC(N3CCC(N4CCCC(O)C4)CC3)CC2)cc1F` (stereo not drawn) [Compound 367]: for the setting “20 μm”, the “48 hrs (morphology observations)” value was 0. Moreover, the cytotoxicity at 20 µM under setting [1] was determined as 5%. In the case of `CCCCOc1ccc(S(=O)(=O)c2cnc3ccc(S(C)(=O)=O)cc3c2N2CCC(N3CCC(O)CC3)CC2)cc1` [Compound 170], under “20 μm”, the “48 hrs (morphology observations)” value was determined as 0 and the Cell death came out at 10%. `CCCCCCCCCCCCOc1ccc(S(=O)(=O)c2cnc3ccc([S+](C)[O-])cc3c2N2CCC(N3CCN(CCO)CC3)CC2)cc1F` (stereo not drawn) [Compound 362]: under “20 μm”, the “48 hrs (morphology observations)” value is “*** (more than 50% but less than 100% of endothelial cells vesicularize in cell shape)” and the Cell death is on record as 20%.

As for `CCc1ccc(S(=O)(=O)c2cnc3ccc(OC(F)(F)F)cc3c2-n2cccc2)cc1` [Compound 108], for the setting “20 μm”, the “48 hrs (morphology observations)” value amounted to 0 and the Cell death was determined as 0%. As to `CCCCOc1ccc(S(=O)(=O)c2cnc3ccc(C(=O)OCC)cc3c2N2CCCN(CCN3CCCC3)CC2)cc1` [Compound 182], under “40 μm”, the “48 hrs (morphology observations)” value was “**** (100% of endothelial cells vesicularize in cell shape and look flattened in morphology (indicating disintegration of the cell body))”; the Cell death was 100%. For `CCOC(=O)c1ccc2ncc(S(=O)(=O)c3ccc(OC)cc3)c(-n3ccnc3)c2c1` [Compound 141], under “20 μm”, the “48 hrs (morphology observations)” value is “**** (100% of endothelial cells vesicularize in cell shape and look flattened in morphology (indicating disintegration of the cell body))”; the Cell death is listed as 90%. Take `CCCCOc1ccc(S(=O)(=O)c2cnc3ccc(SC)cc3c2N2CCC3C(COCCN3CC(C)C)C2)cc1` (stereo not drawn) [Compound 352]: the “48 hrs (morphology observations)” value (40 μm) is “*** (more than 50% but less than 100% of endothelial cells vesicularize in cell shape)”. Further, under setting [1], the cytotoxicity at 40 µM is 100%.

With `CCCCCCCCCCCCOc1ccc(S(=O)(=O)c2cnc3ccc([S+](C)[O-])cc3c2N2CCC(N3CCC(N4CCN(C)CC4)CC3)CC2)cc1F` (stereo not drawn) [Compound 370], the Cell death (20 μm) came out at 20%.
